Results published in PubChem BioAssay (NCI).
“And” between values parts separate entries of the source, which are not always exact repeats. Identical values can stand only once.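 Five compound concentrations were applied to cells in 96-well plates for 48 hours; endpoints were derived by simple linear interpolation of the resulting dose-response curve. At the GI50, growth is halved. TGI is the concentration that stops growth completely.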 Numbered stars: 1 amine (or outer) side, 2 acyl side, 3 side chain; on linkers, the order of the positions; unused ones are H or OH. Bridge positions count the residues as written; N and C are the ends. Square brackets hold non-standard residues; d marks the D form. Peptide text beside a SMILES is read from it. I, II: the chains in the order shown. Actinocin(1to9) = Cc1c2oc3c(C)ccc(C(=O)[*:2])c3nc-2c(C(=O)[*:1])c(N)c1=O; NMeV = CN[CH](C(=O)O)C(C)C; Sar = CNCC(=O)O

Legend:
Experiment in all cases: NCI-60 cell line screen, 48 h
[1] = tested on: SF-539 CNS
[2] = tested on: COLO 205 colon
[3] = tested on: UO-31 renal
[4] = tested on: MDA-MB-231 breast
[5] = tested on: SNB-19 CNS
[6] = tested on: HOP-92 NSCLC
[7] = tested on: OVCAR-5 ovarian
[8] = tested on: UACC-62 melanoma
[9] = tested on: ACHN renal
[10] = tested on: HL-60(TB) leukemia

Compound	TGI [1]	TGI [2]	TGI [3]	TGI [4]	TGI [5]	TGI [6]	TGI [7]	TGI [8]	TGI [9]	TGI [10]	GI50 [1]	GI50 [2]	GI50 [4]	GI50 [5]	GI50 [6]	GI50 [10]	GI50 [7]	GI50 [8]	GI50 [9]
C=[N+](CNC(=O)CNC(=O)C(Cc1ccccc1)NC(=O)OC(C)(C)C)C(=O)CNC(=O)C(Cc1ccccc1)NC(=O)OC(C)(C)C (centres undefined)	> 100 µM	> 100 µM	> 100 µM	> 100 µM	> 100 µM	> 100 µM	> 100 µM	> 100 µM	> 100 µM	–	–	–	–	–	–	–	–	–	–
C[C@]12CC[C@H]3[C@@H](CCC4=CC(=O)CC[C@@]43C)[C@@H]1CC[C@@H]2OC(=O)c1cccc2c(=O)c3ccccc3[nH]c12	> 100 µM	> 100 µM	> 100 µM	> 100 µM	> 100 µM	> 100 µM	> 100 µM	> 100 µM	> 100 µM	–	–	–	–	–	–	–	–	–	–
COc1cc(C2S/C(=C/c3ccccc3)C(=O)N2c2ccccn2)cc(OC)c1OC (centres undefined)	–	> 78.8 µM	28.8 µM	> 84.8 µM	46.5 µM	33.6 µM	41.2 µM	29.8 µM	29.8 µM	> 100 µM	–	–	–	–	–	–	–	–	–
CC(C)(C)c1cc2c(O)c(c1)COCc1cc(C(C)(C)C)cc(c1O)COCc1cc(C(C)(C)C)cc(c1O)COC2	–	> 100 µM	> 100 µM	–	> 100 µM	> 100 µM	> 100 µM	> 100 µM	> 100 µM	> 100 µM	–	–	–	–	–	–	–	–	–
NCCSc1nc(N)c2ncn(C3OC(CO)C(O)C3O)c2n1 (centres undefined)	> 100 µM	> 100 µM	> 100 µM	–	> 100 µM	> 100 µM	> 100 µM	> 100 µM	> 100 µM	> 100 µM	–	–	–	–	–	–	–	–	–
CCCC(=O)Oc1cc(OC(=O)CCC)c2c(C)cc(=O)oc2c1	> 100 µM	> 100 µM	> 100 µM	> 100 µM	> 100 µM	> 100 µM	> 100 µM	> 100 µM	> 100 µM	–	–	–	–	–	–	–	–	–	–
Cc1cc2nc3c(C#N)c4c(c(Nc5ccc(Cl)cc5)n3c2cc1C)CCC4	48.7 µM	59.1 µM	–	42.8 µM	–	47.8 µM	36.3 µM	–	43.3 µM	–	–	–	–	–	–	–	–	–	–
CCCCn1c2c(n(CCCC)c1=[Se])-c1c(n(CCCC)c(=[Se])n1CCCC)S[Se][Se]S2	42.8 µM	39.4 µM	> 44.2 µM	32.2 µM	> 65.2 µM	5.93 µM	47.6 µM	40.7 µM	30.9 µM	–	–	–	–	–	–	–	–	–	–
CC(C)[C@H]1NC(=O)[C@H]2N=C(O[C@@H]2C)[C@@H]2CCCN2C(=O)[C@H](Cc2ccccc2)NC(=O)[C@@H]2COC(=N2)[C@@H](Cc2ccccc2)NC(=O)[C@@H]2COC1=N2	> 100 µM	> 100 µM	> 100 µM	> 100 µM	> 100 µM	–	> 100 µM	> 100 µM	> 100 µM	> 100 µM	–	–	–	–	–	–	–	–	–
C[Si](C)(C)C#CCOC=C1CC1	> 100 µM	> 100 µM	> 100 µM	> 100 µM	> 100 µM	–	> 100 µM	> 100 µM	> 100 µM	> 100 µM	–	–	–	–	–	–	–	–	–
O=C(NC(Cc1ccccc1)P(=O)(O)c1ccccc1)OCc1ccccc1 (centres undefined)	–	> 100 µM	> 100 µM	–	> 100 µM	> 100 µM	> 100 µM	> 100 µM	> 100 µM	> 100 µM	–	–	–	–	–	–	–	–	–
O=c1[nH]c(Br)nc2c(N3CCCCC3)c[nH]c12	> 100 µM	> 100 µM	> 100 µM	–	> 100 µM	> 100 µM	> 100 µM	> 100 µM	> 100 µM	> 100 µM	–	–	–	–	–	–	–	–	–
CCC(C)C1NC(=O)C(NC(=O)c2c3nc4c(C(=O)NC5C(=O)NC(C(C)C)C(=O)N6CCCC6C(=O)N(C)CC(=O)N(C)C(C(C)C)C(=O)OC5C)ccc(C)c4oc-3c(C)c(=O)c2N)C(C)OC(=O)C(C(C)C)N(C)C(=O)CN(C)C(=O)C2CCCN2C1=O (centres undefined) (I: TIP[Sar][NMeV] / II: TVP[Sar][NMeV]; ester I:1-I:C, II:1-II:C; linker I:N-II:N via Actinocin(1to9); configuration not given here)	0.107 µM	0.0163 µM	–	0.0753 µM and 0.261 µM	1.23 µM	0.0476 µM	0.0132 µM	–	0.0377 µM and 0.0261 µM	0.163 µM	–	–	–	–	–	–	–	–	–
C#CC1(O)CC(c2ccccc2)N(C)C(c2ccccc2)C1 (centres undefined)	> 100 µM	> 100 µM	> 100 µM	–	> 100 µM	> 100 µM	> 100 µM	> 100 µM	> 100 µM	> 100 µM	–	–	–	–	–	–	–	–	–
CC1CC/C(=C\c2ccc(F)cc2)C2=C1C(c1ccc(F)cc1)n1c(s/c(=C\c3ccc(Cl)cc3)c1=O)=N2 (centres undefined)	–	–	–	> 100 µM	> 100 µM	> 100 µM	> 100 µM	> 100 µM	> 100 µM	> 100 µM	–	–	–	–	–	–	–	–	–
O=c1[nH]c(=S)c2[nH]c(=O)n(-c3ccccc3)c2[nH]1	–	–	> 100 µM	> 100 µM	> 100 µM	> 100 µM	> 100 µM	> 100 µM	> 100 µM	–	–	–	–	–	–	–	–	–	–
CCOC(=O)c1c(CN2CCOCC2)n(Cc2ccccc2)c2c1cc(O)c1nc(C)c(C)nc12	87 µM	> 100 µM	> 100 µM	> 100 µM	> 100 µM	–	> 100 µM	> 100 µM	> 100 µM	> 100 µM	–	–	–	–	–	–	–	–	–
COc1ccc(-c2c(C#N)cnc(N)c2-c2nc3cc(C)c(C)cc3[nH]2)cc1	41.9 µM	63.7 µM	–	> 100 µM	57.1 µM	16.3 µM	> 100 µM	> 100 µM	> 100 µM	> 100 µM	11.5 µM	7.78 µM	8.28 µM	7.06 µM	2.65 µM	83.6 µM	52.4 µM	7.22 µM	39.8 µM
Cc1ccc(C(=O)C(C)N)cc1C (centres undefined)	> 100 µM	> 100 µM	> 100 µM	–	> 100 µM	–	–	> 100 µM	> 100 µM	–	–	–	–	–	–	–	–	–	–
CC(C)C(=O)CP(=O)(O)O	> 100 µM	> 100 µM	–	> 100 µM	> 100 µM	> 100 µM	> 100 µM	> 100 µM	> 100 µM	> 100 µM	–	–	–	–	–	–	–	–	–
O=Cc1ccc2[nH]c(=O)oc2c1	> 100 µM	> 100 µM	82.7 µM	> 100 µM	> 100 µM	–	> 100 µM	> 100 µM	> 100 µM	> 100 µM	–	–	–	–	–	–	–	–	–
CCc1ncc(C(C)(O)c2ccccc2)n1Cc1ccccc1 (centres undefined)	> 100 µM	> 100 µM	> 100 µM	96.3 µM	> 100 µM	> 100 µM	> 100 µM	54.2 µM	> 100 µM	–	–	–	–	–	–	–	–	–	–
